{"source": "patent US20100256069A1", "about": "“TARGETED INDUCTION OF AGGREGATION OF PROTEINS WITH CROSS BETA STRUCTURES” (VIB VZM, priority 2007, published 2010)", "target": "streptavidin-HRP fusion protein (Streptomyces avidinii, UniProt P22629)", "sequence (P22629 25-183)": "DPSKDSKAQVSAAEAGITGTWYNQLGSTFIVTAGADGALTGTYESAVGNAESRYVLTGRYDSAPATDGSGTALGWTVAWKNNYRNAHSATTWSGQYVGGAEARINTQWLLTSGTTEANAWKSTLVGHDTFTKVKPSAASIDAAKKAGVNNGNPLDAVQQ", "sequence (P00433 31-338, further chain)": "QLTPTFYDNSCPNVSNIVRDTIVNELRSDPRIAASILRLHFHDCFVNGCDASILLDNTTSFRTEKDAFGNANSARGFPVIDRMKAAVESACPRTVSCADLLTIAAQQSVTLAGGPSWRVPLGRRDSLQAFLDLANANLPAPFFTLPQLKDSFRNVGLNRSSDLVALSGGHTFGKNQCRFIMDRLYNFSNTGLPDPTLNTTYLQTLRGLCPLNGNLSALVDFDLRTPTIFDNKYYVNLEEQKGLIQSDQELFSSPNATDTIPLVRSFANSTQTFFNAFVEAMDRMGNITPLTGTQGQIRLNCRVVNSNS", "assay": "Depletion of streptavidin-HRP from solution by co-aggregation (residual HRP activity in supernatant, TMB readout)", "settings": "aggregator 1 μM, streptavidin-HRP diluted 1:20,000 in PBS, overnight, room temperature, 750 rpm; FIG. 1", "note": "The star is where a group is joined. Biotin = O=C1N[C@H]2[C@H](CS[C@H]2CCCCC(=O)*)N1", "procedure": "In order to show depletion between the fusion protein HRP-streptavidin from solution due to co-aggregation with the aggregator, we co-incubated the aggregator with the streptavidin-HRP fusion protein. […] To this end, a streptavidin-HRP stock solution (AbD Serotec, product number 710005) was diluted 1:20,000 in PBS and incubated with the aggregator at a final concentration of 1 μM. The samples were incubated overnight with agitation at 750 rpm at room temperature. A control sample consisting of the fusion protein SA-HRP alone in identical buffer (PBS plus 10% DMSO) was included. […] After overnight incubation, co-aggregated material was removed from the sample by centrifugation for 15 min at 17,000 g in a cooled bench top microfuge at 10° C. Of the supernatant, 10 μL was recovered and added in a 96 well plate (Falcon, 353072) to 90 μL of TMB solution. This mixture was incubated at room temperature for 1 minute, after which the colorimetric reaction was arrested by the addition of 100 μL of 2 M H2SO4. The absorbance of the resulting yellow product was measured at OD450nm using an Ultra Microplate Reader (BioTEK, ELx808IU).", "data": [{"substance": "Biotin-ALAVVLQ-NH2", "values": [{"measurement": "residual percentage HRP activity in the supernatant after removal of the co-aggregates by centrifugation", "result": "clearly removes the enzyme from the soluble fraction"}]}]}
